These molecules were tested against Btk (Homo sapiens, UniProt Q06187) (assay: Btk TR-FRET kinase inhibition assay). Settings: pH 7.4, ATP at the Km for the kinase, 1 μM peptide substrate, [Btk]total=0.5 nM, read-out: Btk-TRFRET (Ki).
Btk, sequence (Q06187 whole entry): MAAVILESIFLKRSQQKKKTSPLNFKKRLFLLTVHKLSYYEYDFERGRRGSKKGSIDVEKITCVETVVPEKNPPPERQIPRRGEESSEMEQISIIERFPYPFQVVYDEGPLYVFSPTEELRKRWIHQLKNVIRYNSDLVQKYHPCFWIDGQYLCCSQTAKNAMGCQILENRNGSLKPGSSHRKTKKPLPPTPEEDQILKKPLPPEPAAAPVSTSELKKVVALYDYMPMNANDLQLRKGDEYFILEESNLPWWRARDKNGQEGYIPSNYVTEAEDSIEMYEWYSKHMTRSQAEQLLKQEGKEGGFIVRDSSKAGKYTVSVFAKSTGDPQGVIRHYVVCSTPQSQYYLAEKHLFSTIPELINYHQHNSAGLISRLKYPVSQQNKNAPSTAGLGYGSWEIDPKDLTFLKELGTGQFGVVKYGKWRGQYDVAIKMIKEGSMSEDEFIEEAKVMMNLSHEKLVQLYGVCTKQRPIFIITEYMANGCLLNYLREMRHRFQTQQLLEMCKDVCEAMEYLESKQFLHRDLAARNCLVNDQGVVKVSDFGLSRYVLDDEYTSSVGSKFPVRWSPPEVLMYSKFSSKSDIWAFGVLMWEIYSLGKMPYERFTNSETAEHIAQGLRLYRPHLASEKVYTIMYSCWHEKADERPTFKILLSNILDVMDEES
Format: biochemical
Procedure: Suitable in vitro assays for measuring kinase activity and the inhibition thereof by compounds are known (e.g., see Kuzmic et al. Anal. Biochem. 2000, 286, 45-50).
The following protocol represents an assay for determination of inhibition of kinases under physiological conditions (pH 7.4). Kinase activity was determined using a time-resolved fluorescence resonance energy transfer (TR-FRET) methodology. Measurements were performed in a reaction volume of 50 μL using 96-well assay plates. Kinase enzyme, inhibitor, ATP (at the Km for the kinase), and 1 μM peptide substrate (Biotin-AVLESEEELYSSARQ-NH2) were incubated in a reaction buffer composed of 20 mM Tris, 50 mM NaCl, MgCl2 (5-25 mM depending on the kinase), 1 mM DTT, 0.1 mM EDTA, 0.01% bovine serum albumin, 0.005% Tween-20, and 10% DMSO at pH 7.4 for one hour. The reaction was quenched by the addition of 1.2 equivalents of EDTA (relative to Mg^2+) in 25 μL of 1× Lance buffer (Perkin-Elmer). Streptavidin-APC (Perkin-Elmer) and Eu-labeled p-Tyr100 antibody (Perkin-Elmer) in 1× Lance buffer were added in a 25 μL volume to give final concentrations of 100 nM and 2.5 nM, respectively, and the mixture was allowed to incubate for one hour. The TR-FRET signal was measured on a multimode plate reader with an excitation wavelength of 330 nm and detection wavelengths of 615 nm and 665 nm. Activity was determined by the ratio of the fluorescence at 665 nm to that at 615 nm. For each compound, enzyme activity was measured at various concentrations of compound. Negative control reactions were performed in the absence of inhibitor in replicates of six, and two no-enzyme controls were used to determine baseline fluorescence levels. Inhibition constants were obtained using the program BatchKi (Kuzmic et al. Anal. Biochem. 2000, 286, 45-50). IC50s were obtained according to this equation: IC50={Ki(app)/(1+[ATP]/Km^ATP)}+[E]total/2; for all kinases, [ATP]=Km^ATP, [Btk]total=0.5 nM and [Lck]total=6 nM.
Molecule Cc1cc(F)ccc1Nc1nc2ccc3c(C)c(/C=C/CNC(=O)C4CCP(C)(=O)CC4)[nH]c(=O)c3c2n1C (mixture of isomers) [Compound 15, 2-(4-fluoro-2-methylphenylamino)-1,6-dimethyl-7-{3-[(1-oxo-1-methyl-1λ^5-phosphinan-4-yl)-carbonylamino]propenyl}-1,8-dihydro-imidazo[4,5-h]isoquinolin-9-one] has a Ki of less than 100 nM. For Cc1cc(F)ccc1Nc1nc2ccc3c(C)c(/C=C/CN4CCP(C)(=O)CC4)[nH]c(=O)c3c2n1C [Compound 1, 2-(4-fluoro-2-methylphenylamino)-1,6-dimethyl-7-[3-(4-methyl-4-oxo-4λ^5[1,4]azaphosphinan-1-yl)-propenyl]-1,8-dihydro-imidazo[4,5-h]isoquinolin-9-one], the Ki was less than 100 nM. Cc1c(C=CCN2CCP(C)(=O)CC2)[nH]c(=O)c2c1ccc1nc(Nc3c(Cl)cccc3Cl)n(C)c12 [Compound 2, 2-(2,6-dichloro-phenylamino)-1,6-dimethyl-7-[3-(4-methyl-4-oxo-4λ^5[1,4]azaphosphinan-1-yl)-propenyl]-1,8-dihydro-imidazo[4,5-h]isoquinolin-9-one] was tested, and the Ki was less than 100 nM. Cc1cc(F)ccc1Nc1nc2ccc3c(C)c(/C=C/CN4CCP(=O)(c5ccccc5)CC4)[nH]c(=O)c3c2n1C [Compound 3, 2-(4-fluoro-2-methylphenylamino)-1,6-dimethyl-7-[3-(4-oxo-4-phenyl-4λ^5-[1,4]azaphosphinan-1-yl)-propenyl]-1,8-dihydro-imidazo[4,5-h]isoquinolin-9-one] gave a Ki of less than 100 nM. Work on Cc1ccc(F)cc1Nc1nc2ccc3c(C)c(C=CCN4CCP(=O)(c5ccccc5)CC4)[nH]c(=O)c3c2n1C [Compound 4, 2-(3-fluoro-6-methylphenylamino)-1,6-dimethyl-7-[3-(4-oxo-4-phenyl-4λ^5-[1,4]azaphosphinan-1-yl)-propenyl]-1,8-dihydro-imidazo[4,5-h]isoquinolin-9-one] yielded a Ki of less than 100 nM. In the case of Cc1c(/C=C/CN2CCP(=O)(c3ccccc3)CC2)[nH]c(=O)c2c1ccc1nc(Nc3c(Cl)cccc3Cl)n(C)c12 [Compound 5, 2-(2,6-dichlorophenylamino)-1,6-dimethyl-7-[3-(4-oxo-4-phenyl-4λ^5-[1,4]azaphosphinan-1-yl)-propenyl]-1,8-dihydro-imidazo[4,5-h]isoquinolin-9-one], the Ki is reported as less than 100 nM. In the case of Cc1cc(Cl)cc(Cl)c1Nc1nc2ccc3c(C)c(C=CCN4CCP(=O)(c5ccccc5)CC4)[nH]c(=O)c3c2n1C [Compound 6, 2-(2,4-dichloro-6-methylphenylamino)-1,6-dimethyl-7-[3-(4-oxo-4-phenyl-4λ^5-[1,4]azaphosphinan-1-yl)-propenyl]-1,8-dihydro-imidazo[4,5-h]isoquinolin-9-one], the Ki is reported as less than 100 nM. Cc1ccc(F)cc1Nc1nc2ccc3c(C)c(C=CC(=O)N4CCP(=O)(c5ccccc5)CC4)[nH]c(=O)c3c2n1C [Compound 7, 2-(3-fluoro-6-methylphenylamino)-1,6-dimethyl-7-{2-[(4-oxo-4-phenyl-4λ^5-[1,4]azaphosphinan-1-yl)-carbonyl]ethenyl}-1,8-dihydro-imidazo[4,5-h]isoquinolin-9-one] showed a Ki of 100 to 1000 nM. For Cc1cc(Cl)cc(Cl)c1Nc1nc2ccc3c(C)c(CCCN4CCP(=O)(c5ccccc5)CC4)[nH]c(=O)c3c2n1C [Compound 8, 2-(2,4-dichloro-6-methylphenylamino)-1,6-dimethyl-7-[3-(4-oxo-4-phenyl-4λ^5-[1,4]azaphosphinan-1-yl)-propyl]-1,8-dihydro-imidazo[4,5-h]isoquinolin-9-one], the Ki was 100 to 1000 nM. Molecule Cc1cc(F)ccc1Nc1nc2ccc3c(C)c(CCCN4CCP(=O)(c5ccccc5)CC4)[nH]c(=O)c3c2n1C [Compound 9, 2-(4-fluoro-2-methylphenylamino)-1,6-dimethyl-7-[3-(4-oxo-4-phenyl-4λ^5-[1,4]azaphosphinan-1-yl)-propyl]-1,8-dihydro-imidazo[4,5-h]isoquinolin-9-one] has a Ki of 100 to 1000 nM. Work on Cc1cc(F)ccc1Nc1nc2ccc3c(C)c(C=CCN4CCP(=O)(c5ccc(F)cc5)CC4)[nH]c(=O)c3c2n1C [Compound 10, 2-(4-fluoro-2-methylphenylamino)-1,6-dimethyl-7-[3-(4-oxo-4-(4-fluorophenyl)-4λ^5-[1,4]azaphosphinan-1-yl)-propenyl]-1,8-dihydro-imidazo[4,5-h]isoquinolin-9-one] yielded a Ki of less than 100 nM. COc1ccc(P2(=O)CCN(CC=Cc3[nH]c(=O)c4c(ccc5nc(Nc6cc(F)ccc6C)n(C)c54)c3C)CC2)cc1 [Compound 11, 2-(3-fluoro-6-methylphenylamino)-1,6-dimethyl-7-[3-(4-oxo-4-(4-methoxyphenyl)-4λ^5-[1,4]azaphosphinan-1-yl)-propenyl]-1,8-dihydro-imidazo[4,5-h]isoquinolin-9-one] gave a Ki of less than 100 nM. In the case of Cc1cc(F)ccc1Nc1nc2ccc3c(C)c(/C=C/CN4CCP(=O)(Cc5ccc(F)cc5)CC4)[nH]c(=O)c3c2n1C [Compound 12, 2-(4-fluoro-2-methylphenylamino)-1,6-dimethyl-7-{3-[4-(4-fluorophenylmethyl)-4-oxo-4λ^5-[1,4]azaphosphinan-1-yl]-propenyl}-1,8-dihydro-imidazo[4,5-h]isoquinolin-9-one], the Ki is reported as less than 100 nM. Cc1cc(F)ccc1Nc1nc2ccc3c(C)c(/C=C/CN4CCP(=O)(CC5CC5)CC4)[nH]c(=O)c3c2n1C [Compound 13, 2-(4-fluoro-2-methylphenylamino)-1,6-dimethyl-7-{3-[4-(cyclopropylmethyl)-4-oxo-4λ^5-[1,4]azaphosphinan-1-yl]-propenyl}-1,8-dihydro-imidazo[4,5-h]isoquinolin-9-one] gave a Ki of less than 100 nM. In the case of Cc1cc(F)ccc1Nc1nc2ccc3c(C)c(/C=C/CN4CCP(=O)(C5CC5)CC4)[nH]c(=O)c3c2n1C [Compound 14, 2-(4-fluoro-2-methylphenylamino)-1,6-dimethyl-7-{3-[4-(cyclopropyl)-4-oxo-4λ^5-[1,4]azaphosphinan-1-yl]-propenyl}-1,8-dihydro-imidazo[4,5-h]isoquinolin-9-one], the Ki is reported as less than 100 nM. Cc1cc(F)ccc1Nc1nc2ccc3c(C)c(C=CCNC(=O)C4CCP(=O)(c5ccccc5)CC4)[nH]c(=O)c3c2n1C (stereo not drawn) [Compound 16, 2-(4-fluoro-2-methylphenylamino)-1,6-dimethyl-7-{3-[(1-oxo-1-trans-phenyl-1λ^5-phosphinan-4-yl)-carbonylamino]propenyl}-1,8-dihydro-imidazo[4,5-h]isoquinolin-9-one] gave a Ki of less than 100 nM. Cc1cc(F)ccc1Nc1nc2ccc3c(C)c(/C=C/CNC(=O)[C@H]4CC[P@@](=O)(c5ccccc5)CC4)[nH]c(=O)c3c2n1C [Compound 17, 2-(4-fluoro-2-methyl-phenylamino)-1,6-dimethyl-7-{3-[(1-oxo-1-cis-phenyl-1λ^5-phosphinan-4-yl)-carbonylamino]propenyl}-1,8-dihydro-imidazo[4,5-h]isoquinolin-9-one] was tested, and the Ki was less than 100 nM. In the case of Cc1c(C=CCN2CCN(c3ccccc3)CC2)[nH]c(=O)c2c1ccc1nc(Nc3c(Cl)cccc3Cl)n(C)c12 [Compound 18, 2-(2,6-dichlorophenylamino)-1,6-dimethyl-7-[3-(N-phenylpiperazin-1-yl)-propenyl]-1,8-dihydro-imidazo[4,5-h]isoquinolin-9-one], the Ki is reported as less than 100 nM. Cc1cc(F)ccc1Nc1nc2ccc3c(C)c(C=CCN4CCN(c5ccccc5)CC4)[nH]c(=O)c3c2n1C [Compound 19, 2-(4-fluoro-2-methylphenylamino)-1,6-dimethyl-7-[3-(N-phenylpiperazin-1-yl)-propenyl]-1,8-dihydro-imidazo[4,5-h]isoquinolin-9-one] gave a Ki of less than 100 nM.

From patent US8067395B2, “Inhibitors of tyrosine kinases and uses thereof” (Pharmacyclics, Inc., priority 2006, dated 2011)
